Values joined by “and” are separate entries in the source; they are usually repeats but may differ in a detail not shown here. Equal values may be shown once.
What was measured:
[1] = biological target: 5-hydroxytryptamine receptor 2B (Homo sapiens, UniProt P41595); format: functional, cell-based
[2] = biological target: Gamma-aminobutyric acid receptor subunit alpha-1 (Rattus norvegicus, UniProt P62813); format: functional
Glucocorticoid receptor = biological target: T1, Glucocorticoid receptor (Homo sapiens, UniProt P04150)
T1 sequence (P04150 whole entry): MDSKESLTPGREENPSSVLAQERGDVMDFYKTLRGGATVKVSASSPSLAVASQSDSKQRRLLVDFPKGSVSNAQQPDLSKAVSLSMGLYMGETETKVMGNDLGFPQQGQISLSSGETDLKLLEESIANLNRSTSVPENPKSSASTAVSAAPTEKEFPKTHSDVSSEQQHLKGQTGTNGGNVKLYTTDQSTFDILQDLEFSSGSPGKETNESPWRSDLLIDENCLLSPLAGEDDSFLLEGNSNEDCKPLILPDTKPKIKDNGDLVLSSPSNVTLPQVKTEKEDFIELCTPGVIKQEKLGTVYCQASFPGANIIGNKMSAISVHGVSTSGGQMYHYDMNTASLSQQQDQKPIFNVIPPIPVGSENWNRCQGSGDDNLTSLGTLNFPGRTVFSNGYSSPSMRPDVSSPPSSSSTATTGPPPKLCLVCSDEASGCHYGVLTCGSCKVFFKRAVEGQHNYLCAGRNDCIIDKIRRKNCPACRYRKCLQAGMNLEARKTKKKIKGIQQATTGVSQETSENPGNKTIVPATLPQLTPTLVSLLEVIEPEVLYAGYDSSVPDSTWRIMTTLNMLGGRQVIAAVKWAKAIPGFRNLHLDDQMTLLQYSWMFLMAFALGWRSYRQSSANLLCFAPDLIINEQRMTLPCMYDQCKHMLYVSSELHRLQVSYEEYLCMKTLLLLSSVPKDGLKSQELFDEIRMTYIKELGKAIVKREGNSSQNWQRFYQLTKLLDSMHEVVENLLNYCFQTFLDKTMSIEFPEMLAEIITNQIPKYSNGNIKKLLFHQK

Histamine H1 receptor = Histamine H1 receptor (Homo sapiens, UniProt P35367)
Endothelin-1 receptor = biological target: T2, Endothelin-1 receptor (Homo sapiens, UniProt P25101)
T2 sequence (P25101 whole entry): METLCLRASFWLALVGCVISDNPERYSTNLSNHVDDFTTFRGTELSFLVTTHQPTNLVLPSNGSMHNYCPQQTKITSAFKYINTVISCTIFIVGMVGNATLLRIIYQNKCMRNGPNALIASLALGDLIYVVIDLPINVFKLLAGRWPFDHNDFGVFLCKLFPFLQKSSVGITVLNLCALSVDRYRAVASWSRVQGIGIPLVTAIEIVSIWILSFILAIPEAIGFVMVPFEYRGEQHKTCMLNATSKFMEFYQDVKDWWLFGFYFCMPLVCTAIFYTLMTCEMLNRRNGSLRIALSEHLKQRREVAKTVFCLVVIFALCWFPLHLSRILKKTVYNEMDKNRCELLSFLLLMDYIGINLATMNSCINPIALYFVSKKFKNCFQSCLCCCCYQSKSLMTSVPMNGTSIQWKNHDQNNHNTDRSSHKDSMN

[3] = biological target: T3, Alpha-1A adrenergic receptor (Homo sapiens, UniProt P35348); format: functional, cell-based
T3 sequence (P35348 whole entry): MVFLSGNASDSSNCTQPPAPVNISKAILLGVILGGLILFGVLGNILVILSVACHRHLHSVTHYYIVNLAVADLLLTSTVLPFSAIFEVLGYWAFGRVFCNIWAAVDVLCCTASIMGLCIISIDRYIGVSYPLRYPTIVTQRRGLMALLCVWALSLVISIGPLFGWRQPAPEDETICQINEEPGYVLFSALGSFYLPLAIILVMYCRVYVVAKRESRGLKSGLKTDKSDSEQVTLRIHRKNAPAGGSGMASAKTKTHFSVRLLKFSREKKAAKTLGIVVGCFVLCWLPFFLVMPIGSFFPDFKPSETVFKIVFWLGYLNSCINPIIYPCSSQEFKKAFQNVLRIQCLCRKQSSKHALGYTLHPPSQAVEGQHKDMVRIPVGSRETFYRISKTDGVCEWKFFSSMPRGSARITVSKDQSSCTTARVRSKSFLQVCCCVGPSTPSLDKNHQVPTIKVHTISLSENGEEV

[4] = biological target: T4, Amine oxidase [flavin-containing] A (Homo sapiens, UniProt P21397); format: functional
T4 sequence (P21397 whole entry): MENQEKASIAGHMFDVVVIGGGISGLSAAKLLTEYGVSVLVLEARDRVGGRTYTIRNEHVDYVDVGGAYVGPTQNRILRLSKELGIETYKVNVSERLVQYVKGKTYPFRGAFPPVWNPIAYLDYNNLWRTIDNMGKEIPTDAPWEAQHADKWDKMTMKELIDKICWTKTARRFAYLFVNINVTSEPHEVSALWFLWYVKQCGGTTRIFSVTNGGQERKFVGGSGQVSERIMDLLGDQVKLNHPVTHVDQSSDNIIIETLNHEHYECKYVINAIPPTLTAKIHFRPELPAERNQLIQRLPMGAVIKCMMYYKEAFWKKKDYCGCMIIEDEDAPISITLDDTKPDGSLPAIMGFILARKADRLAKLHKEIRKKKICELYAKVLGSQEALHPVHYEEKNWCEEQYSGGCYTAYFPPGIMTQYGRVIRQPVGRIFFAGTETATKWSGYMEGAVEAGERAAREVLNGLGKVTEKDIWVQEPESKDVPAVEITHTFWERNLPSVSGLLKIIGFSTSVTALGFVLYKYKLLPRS

Acetylcholinesterase = Acetylcholinesterase (Homo sapiens, UniProt P22303); format: functional
[5] = biological target: T5, Alpha-2A adrenergic receptor (Homo sapiens, UniProt P08913)
T5 sequence (P08913 whole entry): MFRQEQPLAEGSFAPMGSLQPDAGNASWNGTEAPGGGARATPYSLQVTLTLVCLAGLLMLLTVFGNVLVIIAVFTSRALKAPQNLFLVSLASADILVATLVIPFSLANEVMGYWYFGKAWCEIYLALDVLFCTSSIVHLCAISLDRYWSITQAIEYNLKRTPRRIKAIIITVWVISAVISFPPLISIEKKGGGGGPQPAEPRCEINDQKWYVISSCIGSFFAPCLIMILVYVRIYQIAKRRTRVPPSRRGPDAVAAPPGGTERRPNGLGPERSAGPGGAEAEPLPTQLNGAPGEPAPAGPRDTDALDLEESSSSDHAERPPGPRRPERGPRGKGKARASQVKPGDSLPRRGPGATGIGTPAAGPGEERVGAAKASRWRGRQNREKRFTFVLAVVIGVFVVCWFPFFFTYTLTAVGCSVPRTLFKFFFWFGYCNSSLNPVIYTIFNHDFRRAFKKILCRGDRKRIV
Further: assay procedure not described here.

Acetylcholinesterase, sequence (P22303 whole entry): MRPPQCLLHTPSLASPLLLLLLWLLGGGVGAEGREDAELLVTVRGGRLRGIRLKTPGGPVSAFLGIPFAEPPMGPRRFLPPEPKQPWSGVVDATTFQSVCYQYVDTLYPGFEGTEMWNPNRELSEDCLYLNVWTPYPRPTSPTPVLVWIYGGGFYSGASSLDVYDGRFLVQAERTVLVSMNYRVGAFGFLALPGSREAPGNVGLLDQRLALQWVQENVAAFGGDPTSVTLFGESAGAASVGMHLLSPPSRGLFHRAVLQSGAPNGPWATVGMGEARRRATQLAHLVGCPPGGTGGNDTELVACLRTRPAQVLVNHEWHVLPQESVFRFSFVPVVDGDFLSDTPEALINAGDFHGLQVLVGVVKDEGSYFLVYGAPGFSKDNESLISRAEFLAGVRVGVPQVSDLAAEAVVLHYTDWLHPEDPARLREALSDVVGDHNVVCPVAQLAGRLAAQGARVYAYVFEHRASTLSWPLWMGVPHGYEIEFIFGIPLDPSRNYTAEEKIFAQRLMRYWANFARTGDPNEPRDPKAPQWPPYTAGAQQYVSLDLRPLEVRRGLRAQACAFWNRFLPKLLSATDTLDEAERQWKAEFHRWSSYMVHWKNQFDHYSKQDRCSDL
5-hydroxytryptamine receptor 2B, sequence (P41595 whole entry): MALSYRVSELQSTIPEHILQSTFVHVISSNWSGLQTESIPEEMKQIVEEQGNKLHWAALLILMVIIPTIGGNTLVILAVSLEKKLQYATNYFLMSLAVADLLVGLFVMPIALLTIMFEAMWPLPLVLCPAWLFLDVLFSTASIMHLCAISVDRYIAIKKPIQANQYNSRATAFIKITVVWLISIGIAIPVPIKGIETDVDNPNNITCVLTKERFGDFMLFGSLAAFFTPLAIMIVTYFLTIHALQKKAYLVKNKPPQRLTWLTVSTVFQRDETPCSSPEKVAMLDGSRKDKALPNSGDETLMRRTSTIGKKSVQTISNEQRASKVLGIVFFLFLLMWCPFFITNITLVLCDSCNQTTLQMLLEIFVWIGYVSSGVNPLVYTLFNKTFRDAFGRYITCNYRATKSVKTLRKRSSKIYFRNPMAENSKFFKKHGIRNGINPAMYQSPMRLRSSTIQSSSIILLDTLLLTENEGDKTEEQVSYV
Gamma-aminobutyric acid receptor subunit alpha-1, sequence (P62813 whole entry): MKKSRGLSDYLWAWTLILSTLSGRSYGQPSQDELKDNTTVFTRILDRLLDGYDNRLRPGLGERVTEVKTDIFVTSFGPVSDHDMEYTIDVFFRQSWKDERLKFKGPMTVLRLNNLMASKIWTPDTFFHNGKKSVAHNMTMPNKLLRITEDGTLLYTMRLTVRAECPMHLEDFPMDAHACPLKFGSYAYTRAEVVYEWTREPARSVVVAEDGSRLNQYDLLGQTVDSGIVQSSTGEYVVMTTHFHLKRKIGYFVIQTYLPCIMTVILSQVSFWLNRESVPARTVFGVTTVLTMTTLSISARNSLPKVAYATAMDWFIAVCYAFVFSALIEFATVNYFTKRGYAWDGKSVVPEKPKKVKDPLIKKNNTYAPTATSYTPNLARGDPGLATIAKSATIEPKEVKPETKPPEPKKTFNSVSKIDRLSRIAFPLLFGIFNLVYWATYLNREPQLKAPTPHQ
Histamine H1 receptor, sequence (P35367 whole entry): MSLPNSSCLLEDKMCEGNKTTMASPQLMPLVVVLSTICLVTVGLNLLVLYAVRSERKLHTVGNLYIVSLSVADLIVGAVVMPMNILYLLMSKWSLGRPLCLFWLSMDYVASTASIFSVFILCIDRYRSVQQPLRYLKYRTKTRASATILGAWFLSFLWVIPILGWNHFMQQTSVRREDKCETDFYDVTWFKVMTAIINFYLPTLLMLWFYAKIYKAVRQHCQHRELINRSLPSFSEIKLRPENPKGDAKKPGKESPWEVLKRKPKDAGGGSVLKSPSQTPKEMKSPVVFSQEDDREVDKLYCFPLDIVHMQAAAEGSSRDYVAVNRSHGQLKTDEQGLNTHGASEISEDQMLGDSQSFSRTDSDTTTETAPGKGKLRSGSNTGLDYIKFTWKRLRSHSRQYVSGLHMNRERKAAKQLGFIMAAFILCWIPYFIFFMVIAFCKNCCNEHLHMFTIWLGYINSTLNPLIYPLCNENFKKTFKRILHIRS

Row | Structure (SMILES) | AC50 [1] [µM] | AC50 [2] [µM] | AC50 (Glucocorticoid receptor) [µM] | AC50 (Histamine H1 receptor) [µM] | AC50 (Endothelin-1 receptor) [µM] | AC50 [3] | AC50 [4] [µM] | AC50 (Acetylcholinesterase) [µM] | AC50 [5] [µM]
1 | Nc1ncn([C@H]2C[C@H](O)[C@@H](CO)O2)c(=O)n1 [DECITABINE] | > 30 | > 30 | > 30 | > 30 |  |  |  |  | 
2 | [H]/N=C(/N)N/C(=N/[H])NCCc1ccccc1 [PHENFORMIN] | > 10 | > 10 | > 30 | > 30 | > 30 |  |  |  | 
3 | CCCN[C@H]1CCc2nc(N)sc2C1 [PRAMIPEXOLE] | > 10 | > 10 |  | > 10 |  | 13 µM |  |  | 
4 | CCN(CC)C(=S)S [DITIOCARB] |  |  |  |  |  |  | > 30 | > 10 | > 30
5 | CC(C)COCC(CN(Cc1ccccc1)c1ccccc1)N1CCCC1 (stereo unspecified) [BEPRIDIL] | 28 |  | > 30 | 8.6 | > 30 |  |  |  | 
6 | CC(C)(C)C(=O)OCC(=O)[C@H]1CC[C@H]2[C@@H]3CCC4=CC(=O)CC[C@]4(C)[C@H]3CC[C@]12C [DESOXYCORTICOSTERONE PIVALATE] | > 10 | > 10 |  | > 10 |  | > 30 µM |  |  | 
7 | CCC1(c2ccccc2)CCC(=O)NC1=O (stereo unspecified) [GLUTETHIMIDE] | > 10 | > 10 |  | > 10 |  | > 30 µM |  |  | 
8 | CC[C@@H]([C@H](C)O)n1ncn(-c2ccc(N3CCN(c4ccc(OC[C@@H]5CO[C@@](Cn6cncn6)(c6ccc(F)cc6F)C5)cc4)CC3)cc2)c1=O [POSACONAZOLE] |  |  |  | > 30 |  |  | > 30 | > 30 | > 30
9 | CNC1=Nc2ccc(Cl)cc2C(c2ccccc2)=[N+]([O-])C1 [CHLORDIAZEPOXIDE] | > 10 | 0.79 | > 30 |  |  | > 30 µM |  |  | 
10 | Cc1noc(NS(=O)(=O)c2ccc(N)cc2)c1C [SULFISOXAZOLE] | > 10 | > 10 |  |  |  | 22 µM |  |  | 
11 | CCCCC1C(=O)N(c2ccccc2)N(c2ccccc2)C1=O [PHENYLBUTAZONE] | > 10 | > 10 | > 10 |  |  |  |  |  | 
12 | C[C@H](Cc1ccc(O)c(O)c1)[C@@H](C)Cc1ccc(O)c(O)c1 [MASOPROCOL] | 11 | > 10 | 8.7 | > 30 |  | 8.4 µM and > 30 µM (2×) |  |  | 
13 | CCC[C@H](NC(=O)[C@@H]1[C@H]2CCC[C@H]2CN1C(=O)[C@@H](NC(=O)[C@@H](NC(=O)c1cnccn1)C1CCCCC1)C(C)(C)C)C(=O)C(=O)NC1CC1 |  | > 10 | > 30 | > 10 |  |  |  |  | 
14 | Cc1cc(C(C)(C)C)cc(C)c1CC1=NCCN1 [XYLOMETAZOLINE] |  | > 30 | > 30 | > 30 | > 30 |  |  |  | 
15 | CC1OC2(CS1)CN1CCC2CC1 (stereo unspecified) [CEVIMELINE] | > 10 | > 10 | > 10 | > 30 |  | > 30 µM |  |  | 
16 | CC(C(=O)O)c1ccc(-c2ccccc2)c(F)c1 (stereo unspecified) [FLURBIPROFEN] | > 10 | > 10 | > 30 |  |  |  | > 30 | > 30 | > 30
17 | CCOC(=O)c1cncn1[C@H](C)c1ccccc1 [ETOMIDATE] | > 10 |  | > 10 | > 10 |  | > 30 µM |  |  | 
18 | Cc1cc2cc3c(C)cc(=O)oc3c(C)c2o1 [TRIOXSALEN] | > 10 | > 10 |  |  |  |  |  |  | 
19 | Clc1ccc(C(Cn2ccnc2)OCc2ccsc2Cl)c(Cl)c1 (stereo unspecified) [TIOCONAZOLE] | > 30 | > 30 | 17.9 | > 30 |  | 3.2 µM |  |  | 
20 | CCCC(CCC)C(N)=O [VALPROMIDE] | > 10 | > 10 | > 30 | > 10 |  | > 30 µM |  |  | 
21 | O=C(O)c1cn(C2CC2)c2cc(N3CCNCC3)c(F)cc2c1=O [CIPROFLOXACIN] |  |  | > 30 |  | > 30 |  |  |  | 
22 | CCCCC(=O)O[C@]1(C(=O)CO)[C@@H](C)C[C@H]2[C@@H]3CCC4=CC(=O)C=C[C@]4(C)[C@@]3(F)[C@@H](O)C[C@@]21C [BETAMETHASONE VALERATE] | > 10 | > 10 | 0.004 | > 10 |  | > 30 µM |  |  | 
23 | CC(CCc1ccc(O)cc1)NCCc1ccc(O)c(O)c1 (stereo unspecified) [DOBUTAMINE] | > 30 | > 30 | > 30 |  | > 30 |  |  |  | 
24 | C=C1CC[C@H](O)C/C1=C/C=C1\CCC[C@]2(C)[C@@H]([C@H](C)/C=C/[C@H](C)C(C)C)CC[C@@H]12 [ERGOCALCIFEROL] |  |  |  |  |  |  | > 30 | > 30 | > 30
25 | O=[N+]([O-])c1ccc(O)c2ncccc12 [NITROXOLINE] | > 30 | > 30 |  | 4.9 |  | > 30 µM | > 30 | > 10 | > 30
26 | CNCc1ccc(-c2[nH]c3cc(F)cc4c3c2CCNC4=O)cc1 [RUCAPARIB] |  |  | > 30 | > 10 |  |  |  |  | 
27 | CC(C)NCC(O)c1ccc(O)c(O)c1 (stereo unspecified) [ISOPROTERENOL] | > 10 | > 10 | > 30 |  | > 30 |  |  |  | 
28 | CN1CCC(=C2c3ccccc3CCc3cccnc32)CC1 [AZATADINE] | 1.6 | > 10 |  | 0.0066 |  | > 30 µM |  |  | 
29 | CC(C)[C@H](N)C(=O)OCC(CO)OCn1cnc2c(=O)nc(N)[nH]c21 (stereo partly specified) [VALGANCICLOVIR] | > 30 | > 30 | > 30 | > 30 |  |  |  |  | 
30 | CCC(=O)O[C@H]1CC[C@H]2[C@@H]3CCC4=CC(=O)CC[C@]4(C)[C@H]3CC[C@]12C [TESTOSTERONE PROPIONATE] | > 10 | > 30 | 0.109 | > 10 |  | > 30 µM |  |  | 
